“Also recorded” adds a separate entry of the source.
Columns and labels:
NPR-10B = biological target: T1, NPR-10B (Caenorhabditis elegans, UniProt Q6EUU1); experiment: In vitro GPCR activation assay (CHO-K1, aequorin, Gα16), NPR-10B; assay type: cell-based, C. elegans; conditions: CHO-K1 aequorin/Gα16 calcium response
T1 sequence (Q6EUU1 1-362): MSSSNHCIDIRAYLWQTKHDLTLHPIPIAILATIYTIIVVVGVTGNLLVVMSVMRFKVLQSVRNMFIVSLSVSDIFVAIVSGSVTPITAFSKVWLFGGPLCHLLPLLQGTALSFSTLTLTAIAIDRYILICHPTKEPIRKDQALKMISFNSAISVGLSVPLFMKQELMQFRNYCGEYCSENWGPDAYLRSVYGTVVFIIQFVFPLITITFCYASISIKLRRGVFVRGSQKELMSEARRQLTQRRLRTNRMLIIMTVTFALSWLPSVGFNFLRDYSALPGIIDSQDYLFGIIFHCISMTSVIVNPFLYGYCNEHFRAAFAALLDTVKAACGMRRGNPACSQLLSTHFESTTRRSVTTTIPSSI
Protocol: (§1) The GPCR activation assay was performed as previously described[66],[74]. Briefly, npr-10 and frpr-16 cDNAs were cloned into the pcDNA3.1 TOPO expression vector (Thermo Fisher Scientific). A CHO-K1 cell line (PerkinElmer, ES-000-A24) stably expressing apo-aequorin targeted to the mitochondria (mtAEQ) and human Gα16 was transiently transfected with the receptor cDNA construct or the empty pcDNA3.1 vector using Lipofectamine LTX and Plus reagent (Thermo Fisher Scientific). Cells were shifted to 28 °C one day later and allowed to incubate for 24 h. On the day of the assay, cells were collected in BSA medium (DMEM/Ham’s F12 with 15 mM HEPES, without phenol red, 0.1% BSA) and loaded with […] coelenterazine h (Thermo Fisher Scientific) for 4 h at room temperature. The incubated cells were then added to synthetic peptides dissolved in DMEM/BSA, and luminescence was measured for 30 s at 496 nm using a Mithras LB940 (Berthold Technologies) or MicroBeta LumiJet luminometer (PerkinElmer). After 30 s of readout, 0.1% triton X-100 was added to lyse the cells, resulting in a maximal calcium response that was measured for 10 s. After initial screening, concentration-response curves were constructed for HPLC-purified FLP-3 peptides by subjecting the transfected cells to each peptide in a concentration range from 1 pM to 10 µM. Cells transfected with an empty vector were used as a negative control. Assays were performed in triplicate on at least two independent days. Concentration-response curves were fitted using Prism v. 7 (nonlinear regression analysis with a sigmoidal concentration-response equation).

NPR-10A = experiment: In vitro GPCR activation assay (CHO-K1, aequorin, Gα16), NPR-10A; assay type: cell-based, C. elegans; conditions: CHO-K1 aequorin/Gα16 calcium response; Supplementary Fig. 10a
Protocol: This peptide contains an R-to-K mutation within the C-terminal motif, which may explain the lack of receptor activation.
as §1, with “After initial screening, concentration-response curves were constructed for HPLC-purified FLP-3 peptides by subjecting the transfected cells to each peptide in a concentration range from 1 pM to 10 µM. Cells transfected with an empty vector were used as a negative control. Assays were performed in triplicate on at least two independent days. Concentration-response curves were fitted using Prism v. 7 (nonlinear regression analysis with a sigmoidal concentration-response equation).” left out

FRPR-16 = biological target: T2, FRPR-16 (Caenorhabditis elegans, UniProt Q21957); experiment: In vitro GPCR activation assay (CHO-K1, aequorin, Gα16), FRPR-16; assay type: cell-based, C. elegans; conditions: CHO-K1 aequorin/Gα16 calcium response
T2 sequence (Q21957 1-340): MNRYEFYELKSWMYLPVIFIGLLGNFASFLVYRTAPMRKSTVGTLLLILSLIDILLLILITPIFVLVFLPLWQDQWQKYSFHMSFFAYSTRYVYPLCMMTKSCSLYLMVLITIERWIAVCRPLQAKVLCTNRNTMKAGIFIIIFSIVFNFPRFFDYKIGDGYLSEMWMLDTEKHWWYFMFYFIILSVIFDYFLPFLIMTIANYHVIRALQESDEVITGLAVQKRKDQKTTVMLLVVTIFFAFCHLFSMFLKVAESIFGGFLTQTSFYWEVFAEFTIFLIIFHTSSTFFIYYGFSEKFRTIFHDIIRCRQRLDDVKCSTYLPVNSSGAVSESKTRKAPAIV
Protocol: as §1

[1] = test system: flp-3 lof C. elegans males; experiment: Peptide rescue-by-feeding, avoidance assay; assay type: in vivo; conditions: flp-3 lof males reared on bacteria expressing the peptide; 1 µM ascr#8 drop
From the text: To identify which FLP-3 peptides are required for male avoidance of ascr#8, we adopted a peptide feeding approach, similar to RNAi feeding, as initially described previously[37],[59] (Fig. 6a). Using Gateway Cloning technology, we first inserted FLP-3 peptide coding sequences into a bacterial expression vector. As a control, we first tested the FLP-3 peptides that are still encoded in the ok3625 allele which are insufficient to drive the proper ascr#8 response in vivo: FLP-3-1 (SPLGTMRFamide) and FLP-3-4 (NPLGTMRFamide) (Supplementary Fig. 4). We then reared flp-3 lof animals on lawns of bacteria expressing the rescue constructs, and their progeny were assayed for avoidance (Fig. 6b–d, Supplementary Fig. 12).
DNA oligos containing the sequence for the peptides of interest were generated using Integrated DNA Technologies’ Ultramer synthesis service. The DNA sequence encoding the peptide sequence was flanked with sequences encoding EGL-3 cut sites (MRFGKR upstream, and KRK-STOP) downstream. These sites were then flanked with Gateway Cloning sites attB1 and attB2. Annealed oligos were then used to perform a BP reaction with pDONR p1-p2 to generate the pENTRY clones. […]
Assays were performed as described previously[4],[11],[41]. […] A drop of either water or 1 µM ascr#8 was placed on the tail of forward moving animals, and their response was scored as either an avoidance response, or no response. […]

C. elegans [2] = experiment: Single worm attraction assay (SWAA); assay type: in vivo
Protocol: We adapted the spot retention assay (Supplementary Fig. 1)[28],[38] to allow for better characterization of individual worm behavior and robust interrogation of attraction to small molecules. We first compared the attractiveness of 1 µM ascr#8 (Fig. 1a, inset) across multiple strains of C. elegans (the wild-type N2 strain, the high incidence of male him-5 and him-8 strains, and the chemosensory cilia defective osm-3), using our novel behavioral assay, the single worm attraction assay (SWAA) (Fig. 1a). In this assay, individual animals are placed directly into the spot of the ascaroside cue (A) while simultaneously removing any potential of male–male contact. A spatial control is included throughout the assay plate to allow us to investigate any innate differences in the number of visits to the well center, or the time spent therein, of which we have only found one strain to date with differences in male dwell time (Fig. 1a). Likewise, a vehicle control (V) is also included, to account of any changes in dwell time that are driven by the components of the vehicle. The outer forty wells of a 48-well suspension culture plate (Olympus Plastics, Cat #: 25-103) were seeded with 200 µL of standard NGM agar. To prepare the plates for the assay, they were acclimated to room temperature, at which point each well was seeded with 65 µL of OP50 E. coli. […] A single worm was placed in each of the 10 wells to be assayed, and the plate was transferred to a light source and camera and recorded for 15 m. […] Raw dwell time values were calculated by subtracting the time a worm exited the cue (center of the well in spatial controls), from the time it entered, as in the SRA[14]. This was determined per visit, and the average dwell time was calculated for each animal in the quadrant. Averages of the four-quadrant means were determined per plate, and a minimum of five plates were assayed per strain/condition. The mean raw dwell time across five plates was calculated and used for statistical analyses and graphical display. […] The number of visits per-worm was calculated, and the average visit count determined per quadrant, and per plate. The average visit count across five plates was calculated and used for statistical analyses and graphical display. An “attractive visit” was first determined for each plate as any visit greater than two standard deviations above the mean dwell time within the vehicle control for that plate. Any individual visit meeting this threshold was scored as a “1”, and any below was scored a “0”. The percent visits per-worm that were attractive was determined, and the average of each quadrant taken. […] The average percent of attractive visits across five plates was calculated and used for statistical analyses and graphical display. […]

C. elegans [3] = experiment: Drop avoidance assay; assay type: in vivo; conditions: Fig. 2c
Protocol: Because the defect in male response to ascr#8 was significant, and the SWAA was designed to detect attractive behaviors, we sought to determine if flp-3 loss-of-function (lof) animals were in fact avoiding ascr#8. Using a previously described drop avoidance assay[11],[41], we exposed forward moving animals to a drop of either vehicle control or ascr#8 and scored the avoidance index. […] The hermaphroditic behavior was unaffected by the loss of flp-3. (Fig. 2f). […] Assays were performed as described previously[4],[11],[41]. Fifty to sixty L4 worms were segregated by sex and stored at 20 °C for 5 h to overnight to be assayed as young adults. One to four hours prior to the assay, the lids of unseeded plates were tilted to allow any excess moisture to evaporate off the plates. At the time of the assay, 10 or more animals were transferred onto each of the dried, unseeded plates. A drop of either water or 1 µM ascr#8 was placed on the tail of forward moving animals, and their response was scored as either an avoidance response, or no response. The total number of avoidances was divided by the total number of drops to generate an avoidance index for that plate. This was repeated for at least 10 plates over at least three different days. Statistical comparisons within each strain were made by paired t-test against a significance level set at 0.05. […]

C. elegans [4] = conditions: males no longer attracted to higher concentrations; cited from earlier work
From the text: Here, we investigate the neuronal mechanisms governing the behavioral attractive response of male C. elegans to ascr#8[28].

Compound	Activation of NPR-10 (NPR-10B), in words (NPR-10B)	Activation of NPR-10A, in words (NPR-10A)	Activation of FRPR-16, in words (FRPR-16)	Rescue of the ascr#8 avoidance phenotype, in words [1]	Attractive visits to the cue (C. elegans [2]; 1 µM ascr#8, males of wild-type strains, Supplementary Fig. 2b)	Time spent in ascr#8 compared to the vehicle, in words (C. elegans [2]; hermaphrodites from all strains)	Time spent within ascr#8 spot compared to the vehicle control, in words (C. elegans [2]; males, all wild-type and him strains, Fig. 1b, c)	Avoidance of the cue, in words (C. elegans [3]; flp-3 lof males)	Avoidance of the cue, in words (C. elegans [3]; wild-type males)	Concentration preferred by males (behavioral tuning curve) (C. elegans [4]) [µM]
STVDSSEPVIRDQ [FLP-3-10, non-RFamide peptide encoded by the flp-3 gene]	activated no receptors; also recorded: failed to activate; also recorded: did not activate either receptor	activated no receptors	activated no receptors; also recorded: did not activate either receptor	unable to rescue the avoidance phenotype						
C[C@H](CC/C=C/C(=O)Nc1ccc(C(=O)O)cc1)O[C@@H]1O[C@@H](C)[C@H](O)C[C@H]1O [ascr#8]					30–45%	significantly less time	significant increase	strongly avoided	did not avoid	~1

Reference: article PMC8408276, “Distinct neuropeptide-receptor modules regulate a sex-specific behavioral response to a pheromone” (Communications Biology, 2021)
